Data on four compounds can be found in patent EP0651751B1, “FAMILY OF PORPHIN RING SUBSTANCES, METHOD OF OBTAINING THEM FROM CYANOPHYCEAE, AND APPLICATIONS AS COSMETICS AND AS THERAPEUTIC PRODUCTS” (GENERALE DE PREVENTION ET DE LOISIRS, priority 1992, dated 1994).

In assay [1] the test system is collagène fibreux insoluble. Briefly: Increase of the resistance of collagen to collagenase (agarose gel, diameter of hydrolysis zones). The assay is classed as biochemical. The conditions noted are these: product in the gel at 0,025 %; collagénase pancréatique 10 mg/ml (3800 U/ml), 15 h at 37°C, Tris pH 8,8. The protocol: * Accroissement de la résistance du collagène aux effets de la collagénase : - Mise en évidence : On répartit dans quatre boîtes de Pétri de 8 cm de diamètre 20 ml d'une solution à 1 % d'agarose dans du tampon Tris pH 8,8, contenant en suspension 20 mg de collagène fibreux insoluble et 0, 0,1, 0,3 et 0,5 ml d'une solution à 5 % de produit à tester selon les boîtes, soient des concentrations de 0, 0,025 %, 0,075 %, 0,125 %. Comme la plupart des produits à tester ne sont pas solubles dans le tampon, on part d'une solution mère dans du diméthylsulfoxyde (DMSO). Cette répartition se fait à 45°C. Après solidification de l'agarose, on perfore 5 puits de 3 mm de diamètre dans le gel grâce à un emporte-pièce. Dans ces 5 puits, on place 50 µl d'une solution de collagénase pancréatique dans du tampon Tris pH 8,8 à une concentration de 10 mg/ml (3800 U/ml). Les boîtes de Pétri sont incubées 15 heures à 37°C, puis le gel est coloré par une solution à 0,25 % d'acide picrique à 0,25 % pendant 3 min, puis une solution de Rouge Sirius à 0,1 % pendant 5 min. L'excès de coloration est éliminé par lavage à l'eau. - Résultats :
(§1) On évalue l'action enzymatique en mesurant le diamètre des zones d'hydrolyse du collagène fibreux. Le groupe chlorophylle-chlorophyllide est le plus actif, ce qui suggère que la présence de magnésium dans la structure a une grande importance. * Effet d'inhibition de la collagénase : - Mise en évidence : On répartit dans quatre boîtes de Pétri de 8 cm de diamètre 20 ml d'une solution à 1 % d'agarose dans du tampon Tris pH 8,8, contenant en suspension 20 mg de collagène fibreux insoluble. Cette répartition se fait à 45°C. Après solidification de l'agarose, on perfore 5 puits de 3 mm de diamètre dans le gel grâce à un emporte-pièce. Dans ces 5 puits, on place 25 µl d'une solution de collagénase pancréatique dans du tampon Tris pH 8,8 à des concentrations de : 10 mg/ml (3800 U/ml) et 25 µl d'une solution de la substance à tester dans le même tampon à une concentration de 4 %, 3 %, 2 %, 1 % et 0 %. Comme la plupart des produits à doser ne sont pas solubles dans le tampon, on part d'une solution mère dans du diméthylsulfoxyde. Les boîtes de Pétri sont incubées 15 heures à 37°C, puis le gel est coloré par une solution à 0,25 % d'acide picrique à 0,25 % pendant 3 min, puis une solution de Rouge Sirius à 0,1 % pendant 5 min. L'excès de coloration est éliminé par lavage à l'eau. - Résultats : […]

The subject of assay [2] is collagénase pancréatique. Briefly: Collagenase inhibition (agarose gel diffusion, enzyme and substance together in the well). The assay is classed as biochemical. The conditions noted are these: 15 h at 37°C. On the procedure: as §1
Assay [3] has as its target élastase pancréatique (Sus scrofa, UniProt P00772). Briefly: Pancreatic elastase inhibition on synthetic substrate N succinyl N ala-ala-ala-p nitroanilide. The assay is classed as biochemical. The conditions noted are these: 0,5 ml of 0,1 % test solution in DMSO à 50 %, 3 ml total; pH 7,6; OD 410 nm over 3 min. From the text:
Dans ce test, les substances les plus performantes sont les mêmes que dans le test précédent (chlorophylle-chlorophyllide); de plus, ces substances présentent un effet de renforcement de la résistance du collagène contre les effets de la collagénase, alors que l'enzyme elle-même est peu atteinte par ces substances. * Inhibition de l'élastase pancréatique : - Mise en évidence : L'activité de l'élastase pancréatique est déterminée sur un substrat synthétique. On constate que les produits décrits ci-dessus ont un effet sur cette enzyme alors que le substrat est un dérivé de peptide de faible poids moléculaire : le N succinyl N ala-ala-ala-p nitroanilide. Solution substrat : solution du substrat ci-dessus à 1 % dans du tampon phosphate pH 7,6. Solution enzymatique : élastase pancréatique à (1000 U/ml) dans le tampon pH 7,6. Solvant DMSO à 50 % dans de l'eau distillée. Solution à tester : substance à tester en solution dans le solvant à 0,1 %. Dans un premier tube à essai (blanc), on place : • 2,2 ml de tampon pH 7,6 • 0,3 ml de solution enzymatique • 0,5 ml de solvant. Dans un deuxième tube à essai (essai), on place : • 1 ml de solution substrat • 1,2 ml de tampon pH 7,6 • 0,3 ml de solution enzymatique • 0,5 ml de solution à tester. Dans un troisième tube à essai, on place : • 1 ml de solution substrat • 1,2 ml de tampon pH 7,6 • 0,3 ml de solution enzymatique • 0,5 ml de solvant. On mesure la D.O. de la solution essai contre la solution blanc à 410 nm. On note la valeur toutes les 30 secondes pendant 3 minutes. On réalise la même mesure pour la solution témoin. L'activité de l'enzyme est définie par la vitesse d'augmentation de D.O. du témoin. L'activité de la solution inhibitrice à tester se définit comme une diminution relative de l'activité de l'enzyme. - Résultats : […]

Assay [4] deals with fibroblastes humains MRC5. Briefly: Total protein synthesis by fibroblasts in culture (Coomassie blue, OD 595 nm). The conditions noted are these: 100 µl per well, MRC5, 28th passage, medium sampled after 48, 72, 96 and 120 h (time not given); for activation at 50 µg/mL: Homo sapiens, read-out: augmentation de la synthèse protéique par rapport au témoin; for augmentation de la synthèse protéique par rapport au témoin: 50 µg/ml. The assay is classed as cell-based. From the text:
Dans ce test, qui est un test relatif à une inhibition enzymatique vraie, puisque le substrat est artificiel et de structure assez éloignée des substrats naturels de l'enzyme, on constate que les molécules les plus actives en tant qu'inhibiteurs, sont celles dépourvues de radical phytile; la présence du magnésium n'apparaît pas comme essentielle, pour cette fonction particulière, d'où l'intérêt de compositions comprenant plusieurs des substances actives définies ci-dessus. * Effet des substances décrites sur la synthèse des protéines totales par des fibroblastes en culture (restructuration) : - Mise en évidence : Une étude de cytotoxicité est réalisée au préalable pour déterminer les concentrations maximales de test des différentes substances concernées. Cellules utilisées : fibroblastes humains MRC5, au 28ème passage. Les cellules sont ensemencées sur une plaque à 96 puits à raison de 2.10^5 cellules par puits environ et mises en culture dans du milieu minimum de Eagle (MEM) additionné de 1 % de glutamine 200 mM, 1 % de solution de vitamines, 100 U/ml de pénicilline, 100 U/ml de streptomycine et 2 % de sérum de veau foetal. La solution à tester est ajoutée à raison de 100 µl par puits, à la concentration de 50 µg/ml. Les cellules sont incubées à 37°C sous 5 % d'atmosphères de CO2. On prélève le milieu de culture après 48, 72, 96 et 120 heures de culture. Les protéines totales synthétisées sont déterminées après coloration des surnageants par le bleu de Coomassie et mesure de la D.O. à 595 nm. L'augmentation de la synthèse protéique est mesurée par rapport au témoin (solvant de la substance à tester). - Résultats : […]

Assay [5] can be described thus: Antiradical effect, chemical method (DPPH, OD 519 nm). The conditions noted are these: 0,15 ml of 2 % solution in methanol; 25°C, 5 min; pH 7; toluene extraction. On the procedure: Dans ce test, on constate une relative homogénéité des actions des différentes substances, contrairement aux tests précédents; ici, c'est donc la structure commune qui doit jouer le rôle principal dans cette action. - Mise en évidence par la méthode chimique : Réactif : 1,1-diphényl-2-picrylhydrazyle : 2,5 mg dans 100 ml de méthanol. Solvant des substances antiradicalaires : méthanol. Solution antiradicalaire : 2 % dans du méthanol. Ce produit est un radical libre stable pouvant être dégradé par des substances antiradicalaires. On réalise un blanc pour le témoin et un blanc pour l'essai : Blanc témoin : tampon phosphate pH 7 : 1,5 ml méthanol : 3 ml Témoin : solution réactif : 3 ml tampon phosphate pH 7 : 1,5 ml Blanc essai : tampon phosphate pH 7 : 1,35 ml méthanol : 3,15 ml Essai : solution réactif : 3 ml tampon phosphate pH 7 : 1,35 ml solution d'antiradicalaire : 0,15 ml. On agite à 25°C pendant 5 min. Puis on extrait par 4 ml de toluène pendant 30 secondes. On filtre sur un papier séparateur de phases et on lit la D.O. de la solution de toluène à 519 nm contre la solution de toluène obtenue pour le blanc correspondant. On calcule le pourcentage de réactif disparu. - Résultats : […]

Where [6] appears, read: 25 µl substance solution at 1 % with 25 µl collagénase 10 mg/ml in the well.
[7] abbreviates: 25 µl substance solution at 2 % with 25 µl collagénase 10 mg/ml in the well.
The mark [8] stands for this setting: 25 µl substance solution at 3 % with 25 µl collagénase 10 mg/ml in the well.
[9] abbreviates: 25 µl substance solution at 4 % with 25 µl collagénase 10 mg/ml in the well.

Sequence of élastase pancréatique (P00772 27-266): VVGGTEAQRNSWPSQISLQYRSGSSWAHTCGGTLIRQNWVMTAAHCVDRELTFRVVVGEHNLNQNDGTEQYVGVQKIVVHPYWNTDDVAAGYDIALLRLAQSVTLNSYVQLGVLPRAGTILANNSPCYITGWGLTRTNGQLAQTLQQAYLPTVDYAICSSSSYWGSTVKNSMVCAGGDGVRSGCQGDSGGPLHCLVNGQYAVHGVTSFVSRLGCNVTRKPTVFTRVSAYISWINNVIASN

Turning to `C=CC1=C(C)c2cc3[nH]c(c(CCC(=O)O)c3C)c3c4nc(cc5[nH]c(cc1n2)c(C)c5CC)C(C)=C4C(=O)C3C(=O)OC` (centres unmarked) [Phaéophorbide a, didéhydrophaéophorbide a], in assay [1], the “Accroissement de la résistance du collagène aux effets de la collagénase” value was found to be 2%. In addition, the “Effet d'inhibition de la collagénase” value in assay [2] (setting [6]) worked out at 2%; in assay [2] (setting [7]), 2%; in assay [2] (setting [8]) it was 2%; in assay [2] (setting [9]), 6%. Further, the “Inhibition de l'élastase pancréatique (diminution relative de l'activité de l'enzyme)” value in assay [3] stood at 17%. Besides, the activation at 50 µg/mL in assay [4] worked out at 1%. Further, in assay [5], the “pourcentage de réactif disparu (méthode chimique)” value (“pourcentage de réactif disparu” for short) was 33%.
For `C=CC1=C(C)c2cc3[nH]c(c(CCC(=O)OCC=C(C)CCCC(C)CCCC(C)CCCC(C)C)c3C)c3c4nc(cc5[nH]c(cc1n2)c(C)c5CC)C(C)=C4C(=O)C3C(=O)OC` (centres unmarked) [Phaéophytine a, didéhydrophaéophytine a], the “Accroissement de la résistance du collagène aux effets de la collagénase” value in assay [1] is on record as 0%. The “Effet d'inhibition de la collagénase” value was determined as 0% in assay [2] (setting [6]), 0% in assay [2] (setting [7]), 0% in assay [2] (setting [8]) and 2% in assay [2] (setting [9]). For the same compound, in assay [3], the “Inhibition de l'élastase pancréatique (diminution relative de l'activité de l'enzyme)” value is given as 9%. Also, the activation at 50 µg/mL in assay [4] was 4%. In addition, the “pourcentage de réactif disparu” value in assay [5] is listed as 20%.
In the case of didéhydrochlorophylle a, the “Accroissement de la résistance du collagène aux effets de la collagénase” value in assay [1] is reported as 5%. Moreover, the “Effet d'inhibition de la collagénase” value was found to be 2% in assay [2] (setting [6]), 3% in assay [2] (setting [7]), 3% in assay [2] (setting [8]) and 4% in assay [2] (setting [9]). Also, the “Inhibition de l'élastase pancréatique (diminution relative de l'activité de l'enzyme)” value in assay [3] is on record as 12%. For the same compound, the “augmentation de la synthèse protéique par rapport au témoin” value in assay [4] is reported as 15%. Further, the “pourcentage de réactif disparu” value in assay [5] is recorded as 84%.
In the case of didéhydrochlorophyllide a, in assay [1], the “Accroissement de la résistance du collagène aux effets de la collagénase” value is 3%. The “Effet d'inhibition de la collagénase” value in assay [2] (setting [6]) came to 3%; in assay [2] (setting [7]) it was 6%; in assay [2] (setting [8]) it was 8%; in assay [2] (setting [9]), 9%. For the same compound, the “Inhibition de l'élastase pancréatique (diminution relative de l'activité de l'enzyme)” value in assay [3] was 28%. Moreover, the “augmentation de la synthèse protéique par rapport au témoin” value in assay [4] is 23%. In addition, the “pourcentage de réactif disparu” value in assay [5] stood at 83%.
